Test results: PMC12029531, “Selenium in Action: Exploring the Biological Wonders of Hydroselenite Salts” (Molecules, 2025)

Assay: Water solubility by 1H-qNMR in D2O
Format: physicochemical
Details: 298 K

Row | Compound | Water Solubility [µg/mL]
1 | COc1cc(Cc2cnc(N)nc2N)cc(OC)c1OC [AB-2, trimethoprim] | 284
2 | Nc1ccc(S(=O)(=O)Nc2ncccn2)cc1 [AB-4, sulfadiazine] | 112
3 | NNC(=O)c1ccncc1 [AB-5, isoniazid] | 5350
